We go through one compound from patent US20160256466A1, “PI3K INHIBITOR FOR TREATMENT OF RESPIRATORY DISEASE” (GLAXOSMITHKLINE INTELLECTUAL PROPERTY DEVELOPMENT LIMITED, priority 2013, published 2016).

Test [1] has as its system S. pneumoniae strain TIGR4. The test can be described thus: Streptococcus pneumoniae infection in mice, survival by defined mortality-endpoint. It is filed as in vivo, C57BL/6 mice. The settings on record: 0.2 mg/kg micronized, intranasal, twice daily for eleven days; infected intranasally with 1×10^7 CFU; compared to vehicle controls; n=60; Mantel-Cox test **p<0.005. The method, then: (§1) Germ-free C57BL/6 male and female mice aged 10-12 weeks were intranasally administered with 0.2%Tween-80/saline vehicle or 0.2 mg/kg micronized 6-(1H-indol-4-yl)-4-(5-{[4-(1-methylethyl)-1-piperazinyl]methyl}-1,3-oxazol-2-yl)-1H-indazole hydrochloride in the same vehicle. Compound dosing was carried out twice daily for eleven days under anaesthesia using 3% isoflurane for induction and 2% isoflurane for maintenance. At the start of day two, and one hour after administering 6-(1H-indol-4-yl)-4-(5-{[4-(1-methylethyl)-1-piperazinyl]methyl}-1,3-oxazol-2-yl)-1H-indazole hydrochloride or vehicle, mice were anaesthetized with isoflurane as above and infected intranasally with 1×10^7 CFU of S. pneumoniae strain TIGR4. S. Pneumoniae was obtained and prepared as described previously (see, for example, Infect. Immun. December 2011; 79(12): 4965-4976) and given in an inoculum of 50 μl PBS per mouse. Mice were monitored three times daily and assessed using a defined mortality-endpoint, where mice displaying three or more of the limiting clinical signs stated in Home Office Project Licence PPL 70/7661 were culled.

Test [2] has as its system lung gene expression. Kind of test: Affymetrix GeneChip lung gene expression in S. Pneumoniae-infected mice. It is filed as in vivo, C57BL/6 mice. The settings on record: 0.2 mg/kg intranasal twice daily; lungs at various timepoints after S. Pneumoniae-infection; genes significantly altered (minimum 1.5 fold-change; p<0.05) compared to vehicle controls; n=6. The method, then: as §1
Each band corresponds to a single probe and intensity signifies fold change, as indicated in the legend.

Structures can show the parent of a compound that is named as a salt.

Regarding `CC(C)N1CCN(Cc2cnc(-c3cc(-c4cccc5[nH]ccc45)cc4[nH]ncc34)o2)CC1` [6-(1H-Indol-4-yl)-4-(5-{[4-(1-methylethyl)-1-piperazinyl]methyl}-1,3-oxazol-2-yl)-1H-indazole hydrochloride], the “defined mortality-endpoint (percentage survival)” value in test [1] is given as “reduced a defined mortality-endpoint”. Besides, in test [2], the lung gene expression result was “altered lung gene expression”.
